Experiment: xn = mol fraction of the nth substance listed
Conditions: for surface tension liquid-gas: 293 K, Pendant drop shape; for viscosity / speed of sound / mass density: 102 kPa, Liquid; for viscosity: Concentric cylinders viscometry; for speed of sound: Single path-length method; for mass density: Vibrating tube method

CCCCCCCCCCCCCCCC [hexadecane] + CC1CCCCC1
Conditions | surface tension liquid-gas [mN/m]
x2 = 0.1018 | 26.8
x2 = 0.2 | 26.7
x2 = 0.3 | 26.4
x2 = 0.4004 | 26.2
x2 = 0.4999 | 26
x2 = 0.6 | 25.5
x2 = 0.7 | 25.2
x2 = 0.8 | 24.7
x2 = 0.9 | 24.3

Conditions | mass density [kg/m3] | speed of sound [m/s] | viscosity [mPa·s]
293.15 K, x2 = 0.1018 | 773 | 1350.5 | 3.14
293.15 K, x2 = 0.2 | 772.68 | 1343.5 | 2.83
293.15 K, x2 = 0.3 | 772.21 | 1334.5 | 2.54
293.15 K, x2 = 0.4004 | 771.85 | 1325.6 | 2.24
293.15 K, x2 = 0.4999 | 771.43 | 1316.2 | 1.96
293.15 K, x2 = 0.6 | 770.99 | 1303.5 | 1.68
293.15 K, x2 = 0.7 | 770.52 | 1289.9 | 1.42
293.15 K, x2 = 0.8 | 770.06 | 1274.4 | 1.174
293.15 K, x2 = 0.9 | 769.64 | 1256.8 | 0.943
298.15 K, x2 = 0.1018 | 769.51 | 1331.5 | 2.81
298.15 K, x2 = 0.2 | 769.17 | 1324.6 | 2.54
298.15 K, x2 = 0.3 | 768.68 | 1315.4 | 2.29
298.15 K, x2 = 0.4004 | 768.28 | 1306.5 | 2.03
298.15 K, x2 = 0.4999 | 767.82 | 1297.4 | 1.79
298.15 K, x2 = 0.6 | 767.29 | 1284.3 | 1.54
298.15 K, x2 = 0.7 | 766.75 | 1270.5 | 1.31
298.15 K, x2 = 0.8 | 766.16 | 1254.1 | 1.084
298.15 K, x2 = 0.9 | 765.56 | 1236 | 0.892
303.15 K, x2 = 0.1018 | 766.03 | 1312.7 | 2.52
303.15 K, x2 = 0.2 | 765.67 | 1306 | 2.29
303.15 K, x2 = 0.3 | 765.15 | 1296.5 | 2.08
303.15 K, x2 = 0.4004 | 764.7 | 1287.5 | 1.85
303.15 K, x2 = 0.4999 | 764.21 | 1278.4 | 1.65
303.15 K, x2 = 0.6 | 763.6 | 1265 | 1.43
303.15 K, x2 = 0.7 | 762.96 | 1250.9 | 1.22
303.15 K, x2 = 0.8 | 762.24 | 1233.9 | 1.012
303.15 K, x2 = 0.9 | 761.47 | 1215.2 | 0.82
313.15 K, x2 = 0.1018 | 759.08 | 1275.9 | 2.06
313.15 K, x2 = 0.2 | 758.66 | 1269.1 | 1.89
313.15 K, x2 = 0.3 | 758.08 | 1259.4 | 1.72
313.15 K, x2 = 0.4004 | 757.54 | 1250.2 | 1.55
313.15 K, x2 = 0.4999 | 756.95 | 1240.7 | 1.38
313.15 K, x2 = 0.6 | 756.18 | 1226.9 | 1.2
313.15 K, x2 = 0.7 | 755.37 | 1212.1 | 1.03
313.15 K, x2 = 0.8 | 754.38 | 1194.1 | 0.906
313.15 K, x2 = 0.9 | 753.24 | 1174.1 | 0.739
323.15 K, x2 = 0.1018 | 752.12 | 1239.9 | 1.72
323.15 K, x2 = 0.2 | 751.64 | 1233 | 1.58
323.15 K, x2 = 0.3 | 751 | 1223 | 1.45
323.15 K, x2 = 0.4004 | 750.36 | 1213.5 | 1.31
323.15 K, x2 = 0.4999 | 749.66 | 1203.7 | 1.2
323.15 K, x2 = 0.6 | 748.73 | 1189.3 | 1.05
323.15 K, x2 = 0.7 | 747.73 | 1173.8 | 0.91
323.15 K, x2 = 0.8 | 746.47 | 1154.9 | 0.768
323.15 K, x2 = 0.9 | 744.96 | 1133.7 | 0.629
333.15 K, x2 = 0.1018 | 745.15 | 1204.9 | 1.46
333.15 K, x2 = 0.2 | 744.61 | 1197.7 | 1.35
333.15 K, x2 = 0.3 | 743.89 | 1187.7 | 1.24
333.15 K, x2 = 0.4004 | 743.16 | 1177.8 | 1.16
333.15 K, x2 = 0.4999 | 742.34 | 1167.2 | 1.04
333.15 K, x2 = 0.6 | 741.25 | 1152.3 | 0.924
333.15 K, x2 = 0.7 | 740.03 | 1136 | 0.801
333.15 K, x2 = 0.8 | 738.5 | 1116.2 | 0.68
333.15 K, x2 = 0.9 | 736.61 | 1094.2 | 0.558

CC1CCCCC1 [methylcyclohexane] + CCCCCCCCCCCC
Conditions | surface tension liquid-gas [mN/m]
x1 = 0.1 | 24.86
x1 = 0.2001 | 24.84
x1 = 0.3 | 24.76
x1 = 0.4001 | 24.73
x1 = 0.5 | 24.5
x1 = 0.5999 | 24.34
x1 = 0.7 | 24.25
x1 = 0.7999 | 24.11
x1 = 0.9 | 23.95

Conditions | mass density [kg/m3] | speed of sound [m/s] | viscosity [mPa·s]
293.15 K, x1 = 0.1 | 749.76 | 1293.1 | 1.41
293.15 K, x1 = 0.2001 | 750.92 | 1288.3 | 1.34
293.15 K, x1 = 0.3 | 752.24 | 1283.1 | 1.26
293.15 K, x1 = 0.4001 | 753.73 | 1277.5 | 1.18
293.15 K, x1 = 0.5 | 755.42 | 1271.7 | 1.11
293.15 K, x1 = 0.5999 | 757.37 | 1265.3 | 1.03
293.15 K, x1 = 0.7 | 759.54 | 1258.9 | 0.95
293.15 K, x1 = 0.7999 | 762.21 | 1251.8 | 0.875
293.15 K, x1 = 0.9 | 765.42 | 1244.3 | 0.798
298.15 K, x1 = 0.1 | 746.11 | 1273.6 | 1.29
298.15 K, x1 = 0.2001 | 747.24 | 1268.7 | 1.23
298.15 K, x1 = 0.3 | 748.53 | 1263.4 | 1.16
298.15 K, x1 = 0.4001 | 749.97 | 1257.7 | 1.09
298.15 K, x1 = 0.5 | 751.63 | 1251.7 | 1.04
298.15 K, x1 = 0.5999 | 753.5 | 1245 | 0.968
298.15 K, x1 = 0.7 | 755.59 | 1238.2 | 0.898
298.15 K, x1 = 0.7999 | 758.17 | 1230.8 | 0.828
298.15 K, x1 = 0.9 | 761.26 | 1222.7 | 0.755
303.15 K, x1 = 0.1 | 742.46 | 1254.3 | 1.2
303.15 K, x1 = 0.2001 | 743.56 | 1249.3 | 1.14
303.15 K, x1 = 0.3 | 744.81 | 1243.9 | 1.08
303.15 K, x1 = 0.4001 | 746.21 | 1238 | 1.02
303.15 K, x1 = 0.5 | 747.8 | 1231.9 | 0.959
303.15 K, x1 = 0.5999 | 749.62 | 1224.8 | 0.889
303.15 K, x1 = 0.7 | 751.64 | 1217.8 | 0.826
303.15 K, x1 = 0.7999 | 754.12 | 1209.9 | 0.762
303.15 K, x1 = 0.9 | 757.08 | 1201.4 | 0.696
313.15 K, x1 = 0.1 | 735.13 | 1216.3 | 1.01
313.15 K, x1 = 0.2001 | 736.17 | 1211.1 | 0.965
313.15 K, x1 = 0.3 | 737.34 | 1205.4 | 0.916
313.15 K, x1 = 0.4001 | 738.65 | 1199.2 | 0.871
313.15 K, x1 = 0.5 | 740.13 | 1192.9 | 0.858
313.15 K, x1 = 0.5999 | 741.83 | 1185.2 | 0.8
313.15 K, x1 = 0.7 | 743.69 | 1177.6 | 0.744
313.15 K, x1 = 0.7999 | 745.98 | 1169 | 0.689
313.15 K, x1 = 0.9 | 748.69 | 1159.5 | 0.63
323.15 K, x1 = 0.1 | 727.76 | 1178.9 | 0.892
323.15 K, x1 = 0.2001 | 728.74 | 1173.5 | 0.852
323.15 K, x1 = 0.3 | 729.83 | 1167.6 | 0.813
323.15 K, x1 = 0.4001 | 731.05 | 1161.1 | 0.774
323.15 K, x1 = 0.5 | 732.41 | 1154.4 | 0.732
323.15 K, x1 = 0.5999 | 733.97 | 1146.3 | 0.681
323.15 K, x1 = 0.7 | 735.69 | 1138.2 | 0.634
323.15 K, x1 = 0.7999 | 737.77 | 1128.8 | 0.589
323.15 K, x1 = 0.9 | 740.22 | 1118.3 | 0.538
333.15 K, x1 = 0.1 | 720.35 | 1142.5 | 0.783
333.15 K, x1 = 0.2001 | 721.26 | 1137 | 0.752
333.15 K, x1 = 0.3 | 722.26 | 1130.7 | 0.716
333.15 K, x1 = 0.4001 | 723.38 | 1124 | 0.692
333.15 K, x1 = 0.5 | 724.63 | 1116.6 | 0.641
333.15 K, x1 = 0.5999 | 726.06 | 1108.3 | 0.606
333.15 K, x1 = 0.7 | 727.61 | 1099.9 | 0.564
333.15 K, x1 = 0.7999 | 729.48 | 1089.6 | 0.527
333.15 K, x1 = 0.9 | 731.68 | 1078.2 | 0.48
